Assays:
[1] = bacteroides fragilis, 12 h, 2 µM
Description: The drug is tested on Bacteroides fragilis strain: NCTC 9343 for biotransformation. The drug concentrations were measured before and after a 12-h incubation by liquid-chromatography-coupled mass spectrometry (LC–MS)

[2] = The drug is tested on Dorea formicigenerans strain: ATCC27755 for biotransformation. The drug concentrations were measured before and after a 12-h incubation by liquid-chromatography-coupled mass spectrometry (LC–MS); details: 2 µM
[3] = The drug is tested on Bacteroides fragilis strain: HMW610 for biotransformation. The drug concentrations were measured before and after a 12-h incubation by liquid-chromatography-coupled mass spectrometry (LC–MS); details: 2 µM
[4] = limosilactobacillus reuteri cf48-3a, 12 h, 2 µM
Description: The drug is tested on Lactobacillus reuteri CF48-3A strain: BEI HM-102 for biotransformation. The drug concentrations were measured before and after a 12-h incubation by liquid-chromatography-coupled mass spectrometry (LC–MS)

[5] = The drug is tested on Blautia hansenii strain: DSM20583 for biotransformation. The drug concentrations were measured before and after a 12-h incubation by liquid-chromatography-coupled mass spectrometry (LC–MS); details: 2 µM
[6] = The drug is tested on Odoribacter splanchnicus strain: fecal isolate for biotransformation. The drug concentrations were measured before and after a 12-h incubation by liquid-chromatography-coupled mass spectrometry (LC–MS); details: 2 µM
[7] = The drug is tested on Coprococcus comes strain: ATCC27758 for biotransformation. The drug concentrations were measured before and after a 12-h incubation by liquid-chromatography-coupled mass spectrometry (LC–MS); format: ADME; design: dose 2 uM, timepoint 0 vs 12 hours; details: 2 µM

SMILES | Bacterial Biotransformation [1] | Bacterial Biotransformation [2] | Bacterial Biotransformation [3] | Bacterial Biotransformation [4] | Bacterial Biotransformation [5] | Bacterial Biotransformation [6] | Bacterial Biotransformation [7]
CSc1ccc2c(c1)C(N1CCN(C)CC1)Cc1ccccc1S2.O=C(O)/C=C\C(=O)O (stereo unspecified) | Compound NOT metabolized | Compound NOT metabolized | Compound NOT metabolized | Compound NOT metabolized | Compound NOT metabolized | Compound NOT metabolized | –
N[C@@H](Cc1ccc(N(CCCl)CCCl)cc1)C(=O)O | Compound metabolized | Compound metabolized | Compound metabolized | Compound metabolized | Compound metabolized | Compound metabolized | Compound metabolized
NC12CC3CC(CC(C3)C1)C2 [AMANTADINE] | – | Compound NOT metabolized | Compound NOT metabolized | Compound NOT metabolized | Compound NOT metabolized | Compound NOT metabolized | Compound NOT metabolized
CCC1(c2ccc(N)cc2)CCC(=O)NC1=O (stereo unspecified) [AMINOGLUTETHIMIDE] | Compound NOT metabolized | Compound NOT metabolized | Compound NOT metabolized | Compound NOT metabolized | Compound NOT metabolized | Compound NOT metabolized | Compound NOT metabolized
CC(C)(C#N)c1cc(Cn2cncn2)cc(C(C)(C)C#N)c1 [ANASTROZOLE] | Compound metabolized | Compound NOT metabolized | Compound NOT metabolized | Compound NOT metabolized | Compound metabolized | Compound metabolized | Compound NOT metabolized
CN1CCc2cccc3c2[C@H]1Cc1ccc(O)c(O)c1-3 [APOMORPHINE] | Compound NOT metabolized | Compound NOT metabolized | Compound NOT metabolized | Compound NOT metabolized | Compound NOT metabolized | Compound NOT metabolized | Compound NOT metabolized
CCc1oc2ccccc2c1C(=O)c1cc(Br)c(O)c(Br)c1 [BENZBROMARONE] | Compound NOT metabolized | Compound NOT metabolized | Compound NOT metabolized | – | Compound NOT metabolized | Compound NOT metabolized | Compound NOT metabolized
NS(=O)(=O)c1cc2c(cc1Cl)N=C(CSCc1ccccc1)NS2(=O)=O [BENZTHIAZIDE] | – | Compound NOT metabolized | Compound NOT metabolized | Compound NOT metabolized | Compound metabolized | Compound NOT metabolized | –
CC(C)C[C@H]1C(=O)N2CCC[C@H]2[C@]2(O)O[C@](NC(=O)[C@@H]3C=C4c5cccc6[nH]c(Br)c(c56)C[C@H]4N(C)C3)(C(C)C)C(=O)N12.CS(=O)(=O)O [BROMOCRIPTINE MESYLATE] | Compound metabolized | Compound metabolized | Compound metabolized | Compound metabolized | Compound metabolized | Compound metabolized | –
CCCC1O[C@@H]2C[C@H]3[C@@H]4CCC5=CC(=O)C=C[C@]5(C)[C@H]4[C@@H](O)C[C@]3(C)[C@]2(C(=O)CO)O1 (stereo partly specified) [BUDESONIDE] | – | Compound NOT metabolized | Compound metabolized | Compound NOT metabolized | Compound metabolized | Compound metabolized | Compound NOT metabolized
CCCC(C)(COC(N)=O)COC(=O)NC(C)C (stereo unspecified) [CARISOPRODOL] | Compound metabolized | Compound NOT metabolized | Compound metabolized | – | Compound metabolized | – | Compound NOT metabolized
O=C(O)COCCN1CCN(C(c2ccccc2)c2ccc(Cl)cc2)CC1 (stereo unspecified) [CETIRIZINE] | Compound metabolized | Compound NOT metabolized | Compound metabolized | Compound NOT metabolized | Compound metabolized | – | Compound NOT metabolized
CN1C(=O)CCS(=O)(=O)C1c1ccc(Cl)cc1 (stereo unspecified) [CHLORMEZANONE] | Compound NOT metabolized | – | Compound NOT metabolized | Compound NOT metabolized | Compound metabolized | Compound NOT metabolized | –
CN/C(=N/CCSCc1nc[nH]c1C)NC#N [CIMETIDINE] | Compound NOT metabolized | Compound NOT metabolized | Compound NOT metabolized | Compound NOT metabolized | Compound NOT metabolized | – | Compound NOT metabolized
CN1CCC[C@@H]1CCO[C@](C)(c1ccccc1)c1ccc(Cl)cc1.O=C(O)/C=C/C(=O)O [CLEMASTINE FUMARATE] | Compound metabolized | Compound NOT metabolized | Compound metabolized | Compound NOT metabolized | Compound metabolized | Compound metabolized | –
Clc1ccc(Cn2c(CN3CCCC3)nc3ccccc32)cc1 [CLEMIZOLE] | – | Compound NOT metabolized | Compound NOT metabolized | Compound NOT metabolized | Compound metabolized | Compound NOT metabolized | Compound NOT metabolized
C[N+]12CCC(CC1)C(OC(=O)C(O)(c1ccccc1)c1ccccc1)C2.[Br-] (stereo unspecified) [CLIDINIUM BROMIDE] | Compound NOT metabolized | Compound NOT metabolized | Compound NOT metabolized | – | Compound NOT metabolized | – | Compound NOT metabolized
CNCCC(Oc1ccc(C(F)(F)F)cc1)c1ccccc1 (stereo unspecified) [FLUOXETINE] | Compound metabolized | Compound metabolized | Compound metabolized | Compound metabolized | Compound metabolized | Compound metabolized | –
CNC(=C[N+](=O)[O-])NCCSCc1csc(CN(C)C)n1 [NIZATIDINE] | Compound metabolized | Compound metabolized | Compound metabolized | Compound NOT metabolized | Compound metabolized | – | Compound NOT metabolized
CC(C(=O)O)c1ccc2c(c1)Cc1cccnc1O2 (stereo unspecified) [PRANOPROFEN] | Compound metabolized | Compound metabolized | Compound metabolized | – | Compound metabolized | Compound metabolized | Compound metabolized
CCOc1cc(CC(=O)N[C@@H](CC(C)C)c2ccccc2N2CCCCC2)ccc1C(=O)O [REPAGLINIDE] | – | Compound NOT metabolized | Compound metabolized | – | Compound NOT metabolized | Compound NOT metabolized | Compound NOT metabolized
Cc1nc2n(c(=O)c1CCN1CCC(c3noc4cc(F)ccc34)CC1)CCCC2 [RISPERIDONE] | Compound NOT metabolized | – | Compound metabolized | Compound NOT metabolized | Compound metabolized | Compound metabolized | Compound metabolized

Source: ChEMBL document CHEMBL5303573, “Mapping human microbiome drug metabolism by gut bacteria and their genes” (Nature, 2019)
